Patent US20220089600A1, “TGFß INHIBITOR AND PRODRUGS” (FUNDACIÓ INSTITUT DE RECERCA BIOMÈDICA (IRB BARCELONA), priority 2018, published 2022)

Key:
MTO129 liver metastases [1] = details: Tauriello et al. Nature 2018 (10×); cited from earlier work
[2] = In vivo toxicity, histopathology; parameters: species or system mouse; details: for Sternum side effect, mice affected per mice tested / Long bones side effect, mice affected per mice tested: two weeks
From the text: Number of cured mice, i.e. mice with no metastases at experimental end points, were score. Intestines, skin samples, hearts, thoracic skeletons and limbs of these mice were fixed in 10% formalin, phosphate buffered (Sigma). Soft tissues were embedded in paraffin blocks, sectioned and stained with haematoxylin & eosin. Bones were first decalcified for 2 weeks before embedding, sectioning and staining. An experienced pathologist analyzed tissues for histopathological abnormalities. […] Furthermore, the cartilage ossification zone at the ends of the long bones was analysed for defects in the hypertrophic zone.

[3] = tested on: TGFβ signaling (12×CAGA-Firefly_Luc reporter) in HEK293T cells; test: In vitro CAGA-Luciferase reporter assay; assay type: cell-based; details: Homo sapiens, HEK-293T, 5 ng/ml TGFB1, 16h, read-out: IC50, TGFβ signaling inhibition (CAGA-Luciferase)
Procedure: HEK293T cells were purchased from the ATCC and cultured in DMEM supplemented with L-glutamine and 10% fetal bovine serum (Life Technologies) at 37° C. and 5% CO2. The cells were seeded in 24-well plates and transfected with plasmids encoding 12×CAGA-Firefly_Luc and Tk-Renilla_Luc (75 and 10 ng per well, respectively), using polyethylenimine (Polysciences) as transfection reagent. After 7h, medium was replaced for starvation medium (DMEM+0.05% FBS). […] Luciferase activity was measured 16h later using the Dual Luciferase Assay kit (Promega): media were aspirated, and cells were lysed in 200 μl passive lysis buffer (kit) for 20 minutes. Bioluminescence was measured in a Berthold Lumat LB6507 luminometer (18 μl reagents, 10 seconds measurements). […]
When adding the luciferase substrate (luciferin) to the cell lysates, emission of light implies an active TGF-β pathway due to the production of pSMAD2/3-SMAD4, whereas no or little observed light would imply inhibition of the pathway by the inhibitor. Finally, the results could be normalized by the addition of Stop & Glo® which quenches the firefly luciferase enzyme/substrate and activates the Renilla transfection control, producing light which was again measured by the luminometer and used to normalize the data.

MTO129 liver metastases [4] = test: Mouse liver metastasis initiation/formation assay with MTOs; assay type: in vivo; details: for Efficacy (Cure rate): two weeks, mice with no metastases; for metastatic tumor growth inhibitory capacity (bioluminescence): day 3 until day 14
From the text: Mouse tumor organoids (MTOs) are derived from compound transgenic mice (conditional mutations in Apc, Kras, Trp53 and Tgfbr2, as well as bearing Lgr5-EGFP/CreER^T2) of the C57BL6/J strain and cultured as described in Tauriello et al. 2018 Nature 554(7693): 538-543. doi: 10.1038/nature25492. Organoids are tumor epithelial cells grown in a 3D matrix where they adopt an organotypic architecture, typically as spheroids with a lumen. In this way, cells retain a relatively normal polarity (which means that the outside surface, inside/luminal surface and cell-cell contacts are individually specialized), which is more physiological than in conventional 2D cell culture.
In all experiments described in present invention MTO129 were used (Tauriello et al. Nature. 2018).
In patients, treatment doses were reduced to 80 to 150 mg b.i.d in a regime of 14 days on-14 days off.
MTOs expressing a luciferase reporter were measured by bioluminescence imaging, using retroorbital injection of 50 μl 15 mg/ml D-luciferin potassium salt (Resem BV). Photons per second from the region spanning thorax/abdomen were quantified and normalized to the measure at the day of injection.
Control mice were treated with 150 μl of vehicle.
In the experiment shown in FIG. 13, potency of the indicated compounds to inhibit metastasis formation was assessed. Mice were treatments with indicated compounds started two days after MTO129 transplantation and continued during two weeks. Mice were sacrificed at 4 weeks post transplantation and liver metastases (LiMs) were counted by eye on fixed livers.

[5] = biological target: T1, LigF expressed in HEK293T cells (Sphingobium sp., UniProt P30347); test: Fluorescence assay in HEK293T cells stably expressing LigF; assay type: cell-based
T1 construct: expressed in transfected cells; host or cells: HEK293T (lentiviral pLenti PGK puro)
Procedure: […]. At time points after addition of various concentrations of MUAV, namely 10, 30, and 100 μM, culture medium was taken for measurements of 4-MU fluorescence.

LigF = biological target: T2, LigF (Sphingobium sp., UniProt P30347); test: In vitro fluorescence assay with purified LigF; assay type: biochemical, Sphingobium sp. strain SYK-6; details: 30 μM substrate, 15 μg/ml LigF, 1 mM glutathione, room temperature
T2 construct: made in house; host or cells: E. coli BL21 (DE3) Rosetta lysS
T2 sequence (P30347 1-257): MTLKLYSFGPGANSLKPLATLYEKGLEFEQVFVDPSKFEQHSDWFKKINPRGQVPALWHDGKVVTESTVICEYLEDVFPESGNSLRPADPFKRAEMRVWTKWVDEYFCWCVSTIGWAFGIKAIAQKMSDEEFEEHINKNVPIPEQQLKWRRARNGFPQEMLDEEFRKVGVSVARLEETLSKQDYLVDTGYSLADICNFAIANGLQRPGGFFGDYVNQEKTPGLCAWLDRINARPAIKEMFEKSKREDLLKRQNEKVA
Procedure: To test the enzymatic activity of LigF, pure LigF protein was expressed by the Protein Expression Core Facility within the IRB Barcelona by inserting the His-tagged LigF DNA into a pOPINF vector and expressed in E. coli BL21 (DE3) Rosetta IysS cells. After expression and lysis, the protein was purified by using a nickel column followed by gel filtration. Noteworthy, the His tags were not removed from the protein after purification.
For in vitro fluorescence assays, purified LigF was diluted to 15 μg/ml in 20 mM Tris-HCl (pH 7.5), 1 mM glutathione and 30 μM 4-methylumbelliferone acetovanillone (MUAV) model compound was added.
Reactions were performed in a 96-well solid polystyrene plate (Corning) and measured with a top-well plate reader (BioTek FL600 fluorometer) at 360 excitation, 485 emission and sensitivity 100.
Due to a rapid rate of production of 4-methylumbelliferone (4-MU) owing to the cleavage of the beta-ether bond of compound MUAV, the protocol described by Masai (E. Masai et al., J. Bacteriol. 2003, 185, 1768-75) was modified by lowering the LigF enzyme concentration. With this optimized protocol, compound MUAV was incubated at room temperature in the presence of a buffer, glutathione (GSH) and LigF, and followed the cleavage by observing the production of 4-MU by fluorescence. […] Enzyme LigF cleaved product MUAV in approximately 30-40 min (FIG. 6).

SMILES: Cc1cccc(-c2nn3c(c2-c2ccnc4ccc(C(N)=O)cc24)CCC3)n1 [Galunisertib, reference compound]
- doses needed to effectively treat metastatic cancers (MTO129 liver metastases [1]): up to 1600 mg/kg/day
- Combined side effects per number tested ([2]; 1x dose): 0/5
- Toxicity (%) ([2]; 1x dose): 0%
- Sternum side effect, mice affected per mice tested ([2]; 1x dose): 0/5
- pathological analysis of the skin and intestine ([2]; 1× doses): No pathological anomalies
- Combined side effects per number tested ([2]; 3x dose): 1/9
- Toxicity (%) ([2]; 3x dose): 11%
- Long bones side effect, mice affected per mice tested ([2]; 3x dose): 0/5
- Sternum side effect, mice affected per mice tested ([2]; 3x dose): 1/4
- Combined side effects per number tested ([2]; 9x dose): 6/10
- Toxicity (%) ([2]; 9x dose): 60%
- Long bones side effect, mice affected per mice tested ([2]; 9x dose): 2/3
- Sternum side effect, mice affected per mice tested ([2]; 9x dose): 4/7
- toxic dose (toxicity >50%) ([2]; 9× dose equivalent): 1440 mg/kg/day
- IC50 [3]: 359 nM
- Efficacy (Cure rate) (MTO129 liver metastases [4]; 1x dose): 0%
- Efficacy (Cure rate) (MTO129 liver metastases [4]; 3x dose): ~70%
- Efficacy (Cure rate) (MTO129 liver metastases [4]; 9x dose): ~100%
- metastatic tumor growth inhibitory capacity (MTO129 liver metastases [4]; 9× dose, as seen in FIG. 3): highly effective
- metastatic tumor growth inhibitory capacity (bioluminescence) (MTO129 liver metastases [4]; FIG. 4, 1× dose): not effective
- metastatic tumor growth inhibitory capacity (bioluminescence) (MTO129 liver metastases [4]; FIG. 4, 3× dose): mostly effective
- effective dose (>50% efficacy) (MTO129 liver metastases [4]; oral, divided b.i.d.): 480 mg/kg/day

SMILES: COc1cc(C(=O)COc2ccc3c(C)cc(=O)oc3c2)ccc1O [MUAV, 7-(2-(4-hydroxy-3-methoxyphenyl)-2-oxoethoxy)-4-methyl-2H-chromen-2-one]
- cleavage of ether bond (4-MU fluorescence) ([5]; HEK293T expressing LigF, 10, 30, 100 μM): dose-dependent increase in fluorescence
- cleavage of ether bond (4-MU fluorescence) ([5]; HEK293T with empty vector (no LigF), 100 μM): No cleavage
- time for cleavage by LigF (LigF): 30 to 40 min
